The text below walks through data of patent US20220370381A1 (priority 2016, published 2022).

Assay [1] deals with T1, β-Adrenergic (Non-selective).
T1 construct: β-1 adrenergic; other: test article 1×10^−6 and 1×10^−5 mol/L; rat brain
Briefly: Competitive radioligand binding assay, β-adrenergic (non-selective). Set-up: species or system Rat. As to conditions: test article 1×10^−6 and 1×10^−5 mol/L; rat brain.

A further assay deals with T2, serotonin 5-HT1A (Rattus norvegicus, UniProt P19327).
T2 construct: serotonin 5-HT1A (rat cerebral cortex); from tissue; host or cells: rat cerebral cortex
T2 sequence (P19327 1-422): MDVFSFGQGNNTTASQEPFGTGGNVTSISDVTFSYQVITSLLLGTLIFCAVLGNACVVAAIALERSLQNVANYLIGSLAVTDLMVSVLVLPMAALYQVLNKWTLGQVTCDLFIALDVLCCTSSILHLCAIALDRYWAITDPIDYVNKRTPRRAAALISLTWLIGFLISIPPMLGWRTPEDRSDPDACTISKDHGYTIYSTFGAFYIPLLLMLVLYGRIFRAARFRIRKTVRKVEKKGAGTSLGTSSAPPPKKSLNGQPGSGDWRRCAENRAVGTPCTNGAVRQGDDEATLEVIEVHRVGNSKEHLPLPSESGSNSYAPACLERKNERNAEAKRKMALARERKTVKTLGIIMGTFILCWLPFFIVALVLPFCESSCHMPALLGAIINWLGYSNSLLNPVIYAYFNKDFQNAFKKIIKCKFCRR
Briefly: Competitive radioligand binding assay, serotonin 5-HT1A.

Another assay concerns Sigma non-selective. The assay can be described thus: Competitive radioligand binding assay, sigma non-selective. Set-up: species or system Guinea pig. The following applies: test article 1×10^−6 and 1×10^−5 mol/L; guinea pig brain.
Assay [2] has as its system Swiss OF-1 mice. Briefly: Spontaneous alternation in the Y-maze, dizocilpine-induced deficit. It is filed as in vivo, mouse.
The subject of assay [3] is Swiss OF-1 mice. The assay can be described thus: Step-through passive avoidance, dizocilpine-induced deficit. It is filed as in vivo, mouse.
For assay [4], the system named is homozygous scn1Lab−/− mutant zebrafish. Briefly: Locomotor (behavioral) assay in homozygous scn1Lab−/− mutant zebrafish larvae (Dravet syndrome model). The class given is in vivo. As to conditions: 25, 50 or 100 μM for 24 h, 6 dpf larvae; p<0.05 vs. VHC. As to the method: (§1) ZF larvae were treated on 6 dpf with vehicle (VHC, 0.1% dimethyl sulfoxide, DMSO, or FA (25, 50 or 100 μM) for 24 h. Thereafter, the locomotor activity (behavior) was monitored by an automated tracking device. Subsequently, forebrain local field potentials and forebrain activity (LFPs, brain activity) were measured to confirm anticonvulsant effects of FA treatment, if indicated by the behavioral assays.

Assay [5] shares this test system. Briefly: Forebrain local field potential (LFP) recordings in homozygous scn1Lab−/− mutant zebrafish larvae. As to conditions: 25, 50 or 100 μM for 24 h; p<0.05 vs. VHC. It is filed as in vivo. As to the method: as §1
The test system of assay [6] is wild-type zebrafish (ZF) larvae. Briefly: PTZ-induced seizures in wild-type zebrafish larvae, behavioral (locomotor) assay. The following applies: wt zebrafish; p>0.05 vs. VHC+PTZ. It is filed as in vivo.
For the next assay, the system named is DBA/1 mice. Briefly: Audiogenic seizures (AGSz) in DBA/1 mice. It is filed as in vivo, mouse.
Assay [7] has as its target human β-2 adrenergic receptor (Homo sapiens, UniProt P07550). The assay can be described thus: β-2 adrenergic receptor antagonist assay, agonist-induced cAMP production (HTRF). The class given is cell-based. The arrangement: expressed in transfected cells; host or cells: HEK-293. As to conditions: inhibition of isoproterenol-induced cAMP production. Here is the method:
Transfected HEK-293 cells expressing human β-1 adrenergic receptor, human β-2 adrenergic receptor, and human β3 adrenergic receptor, respectively, were prepared using cloned human cDNA. See H FRIELLE, T., COLLINS, S., DANIEL, K. W., CARON, M. G., LEFKOWITZ, R. J., KOBILKA, B. K. (1987), Cloning of the cDNA for the human beta1-adrenergic receptor, Proc. Natl. Acad. Sci. U.S.A., 84,7920, and BAKER, J. G. (2005) The selectivity of Beta-adrenoreceptor antagonists at the human Beta1, Beta2 and Beta3 adrenoreceptor, Brit.
Transfected cells were suspended in HBSS buffer (Invitrogen) complemented with 20 mM HEPES (pH 7.4) and 500 μM IBMX. […] The cells were then distributed in 96 well microplates (see FIG. 15 for plating densities).
After plating, the cells were induced by adding reference agonist. See FIG. 15 for reference agonists and concentrations used for each assay. […] The cells were then incubated 30 minutes at room temperature.
Subsequently, the cells were lysed and a fluorescence acceptor (D2-labeled cAMP) and a fluorescence donor (anti-cAMP antibody labeled with europium cryptate) were added to the wells.
Standard reference antagonists were tested in each experiment at several concentrations to generate a concentration-response curve from which its IC50 value is calculated.
EC50 values (concentration producing a half-maximal response) and IC50 values (concentration causing a half-maximal inhibition of the control agonist response) were determined by non-linear regression analysis of the concentration-response curves generated with mean replicate values using Hill equation curve fitting: […]
For the antagonists, the apparent dissociation constants (KB) were calculated using the modified Cheng Prusoff equation:
KB=IC50/[1+(A/EC50A)], where
(cAMP levels reflect the balance of adenylyl cyclase and phosphodiesterase activity.)

The next assay addresses hNav1.5 (Homo sapiens, UniProt Q14524). Briefly: Ion channel profiling, IonFlux HT automated patch clamp, hNav1.5. (In patch-clamp work, channel activity is measured electrically.)
In assay [8] the target is T3, Sigma 1 (Cavia porcellus, UniProt Q60492). The assay can be described thus: Sigma-1 receptor tissue bioassay, guinea pig vas deferens, agonist activity (twitch contraction). The arrangement: Segments of guinea pig vas deferens were suspended in 20-ml organ baths; from tissue; host or cells: guinea pig vas deferens. The following applies: field-stimulated guinea pig vas deferens, compound alone.

Assay [9] addresses T3, Sigma 1. The assay can be described thus: Sigma-1 receptor tissue bioassay, guinea pig vas deferens, antagonist activity ((+)SKF-10047-induced response). The arrangement: Segments of guinea pig vas deferens were suspended in 20-ml organ baths; from tissue; host or cells: guinea pig vas deferens.
The mark [10] stands for this setting: dizocilpine […], most active doses 0.3 and 1 mg/kg IP.

T3 sequence (Q60492 whole entry): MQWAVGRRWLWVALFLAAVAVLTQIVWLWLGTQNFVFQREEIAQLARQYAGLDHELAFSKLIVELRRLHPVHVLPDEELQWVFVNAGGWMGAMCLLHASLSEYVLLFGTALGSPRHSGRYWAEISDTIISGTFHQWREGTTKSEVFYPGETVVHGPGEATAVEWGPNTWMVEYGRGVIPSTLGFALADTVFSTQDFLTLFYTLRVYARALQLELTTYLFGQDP
Chain of human β-2 adrenergic receptor (P07550 whole entry): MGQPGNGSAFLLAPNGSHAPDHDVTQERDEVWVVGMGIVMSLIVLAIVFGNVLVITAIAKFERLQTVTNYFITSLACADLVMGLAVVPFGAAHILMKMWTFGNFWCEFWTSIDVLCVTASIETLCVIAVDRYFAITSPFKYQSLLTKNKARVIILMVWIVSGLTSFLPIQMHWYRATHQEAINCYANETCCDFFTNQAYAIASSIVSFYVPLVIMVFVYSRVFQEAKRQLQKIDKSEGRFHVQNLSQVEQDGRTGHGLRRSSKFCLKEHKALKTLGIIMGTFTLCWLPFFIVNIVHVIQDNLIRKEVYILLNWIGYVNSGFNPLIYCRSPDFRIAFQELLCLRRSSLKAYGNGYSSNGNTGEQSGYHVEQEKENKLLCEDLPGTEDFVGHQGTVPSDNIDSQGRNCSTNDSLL
Chain of hNav1.5 (Q14524 whole entry): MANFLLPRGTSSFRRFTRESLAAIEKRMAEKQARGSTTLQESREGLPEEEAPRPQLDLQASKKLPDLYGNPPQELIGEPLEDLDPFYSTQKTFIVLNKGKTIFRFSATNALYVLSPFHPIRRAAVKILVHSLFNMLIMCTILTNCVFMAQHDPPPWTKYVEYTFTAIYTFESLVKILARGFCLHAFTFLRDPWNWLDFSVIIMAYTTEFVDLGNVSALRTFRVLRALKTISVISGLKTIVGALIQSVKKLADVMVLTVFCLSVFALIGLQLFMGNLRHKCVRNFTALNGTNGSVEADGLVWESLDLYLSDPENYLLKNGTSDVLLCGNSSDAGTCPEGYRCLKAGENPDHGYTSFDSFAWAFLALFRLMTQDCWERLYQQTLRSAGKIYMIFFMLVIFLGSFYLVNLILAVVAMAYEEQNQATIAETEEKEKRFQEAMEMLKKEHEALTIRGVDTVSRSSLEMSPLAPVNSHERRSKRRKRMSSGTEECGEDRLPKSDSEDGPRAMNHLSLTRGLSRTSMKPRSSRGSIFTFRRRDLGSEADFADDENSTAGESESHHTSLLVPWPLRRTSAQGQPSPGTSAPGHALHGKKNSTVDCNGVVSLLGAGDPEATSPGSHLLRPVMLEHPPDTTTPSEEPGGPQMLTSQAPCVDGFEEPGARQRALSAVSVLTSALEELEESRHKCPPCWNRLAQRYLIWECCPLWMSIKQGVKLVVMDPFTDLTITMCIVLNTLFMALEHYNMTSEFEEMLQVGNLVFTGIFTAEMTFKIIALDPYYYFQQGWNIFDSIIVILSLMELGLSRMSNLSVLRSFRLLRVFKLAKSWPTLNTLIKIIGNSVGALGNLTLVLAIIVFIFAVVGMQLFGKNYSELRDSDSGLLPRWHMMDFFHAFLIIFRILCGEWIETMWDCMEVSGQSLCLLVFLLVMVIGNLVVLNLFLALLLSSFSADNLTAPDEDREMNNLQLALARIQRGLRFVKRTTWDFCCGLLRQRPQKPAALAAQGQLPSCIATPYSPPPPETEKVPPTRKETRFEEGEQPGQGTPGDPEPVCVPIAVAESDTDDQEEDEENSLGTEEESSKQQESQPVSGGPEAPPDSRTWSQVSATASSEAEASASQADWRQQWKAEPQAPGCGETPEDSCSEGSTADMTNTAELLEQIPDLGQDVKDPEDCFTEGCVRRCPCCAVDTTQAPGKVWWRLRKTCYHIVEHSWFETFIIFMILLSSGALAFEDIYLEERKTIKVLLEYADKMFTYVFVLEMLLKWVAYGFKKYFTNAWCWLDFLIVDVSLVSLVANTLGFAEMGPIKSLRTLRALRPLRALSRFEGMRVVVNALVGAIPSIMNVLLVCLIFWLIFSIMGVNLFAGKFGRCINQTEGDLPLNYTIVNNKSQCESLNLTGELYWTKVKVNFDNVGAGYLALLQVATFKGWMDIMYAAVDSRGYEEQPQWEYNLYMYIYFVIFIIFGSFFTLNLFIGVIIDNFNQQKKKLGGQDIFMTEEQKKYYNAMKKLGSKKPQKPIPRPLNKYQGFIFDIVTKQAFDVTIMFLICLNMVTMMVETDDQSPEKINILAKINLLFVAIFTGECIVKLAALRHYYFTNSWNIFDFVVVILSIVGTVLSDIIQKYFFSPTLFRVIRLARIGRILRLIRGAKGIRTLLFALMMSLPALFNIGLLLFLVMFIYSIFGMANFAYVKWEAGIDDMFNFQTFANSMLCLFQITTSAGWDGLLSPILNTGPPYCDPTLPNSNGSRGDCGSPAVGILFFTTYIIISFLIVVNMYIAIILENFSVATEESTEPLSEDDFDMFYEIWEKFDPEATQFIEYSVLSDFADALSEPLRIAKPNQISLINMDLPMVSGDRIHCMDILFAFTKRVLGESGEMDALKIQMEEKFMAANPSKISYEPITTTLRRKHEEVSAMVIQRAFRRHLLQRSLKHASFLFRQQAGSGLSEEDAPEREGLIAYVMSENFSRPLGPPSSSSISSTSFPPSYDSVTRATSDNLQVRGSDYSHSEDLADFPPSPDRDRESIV

By IC50 is commonly meant the concentration needed to halve the response being measured. As a reminder, the Ki is a dissociation constant, usually derived from enzyme kinetics or from competition with a known ligand. A word on the ED50: it is the dose at which the effect has come halfway, by size or by number of responders. Regarding `CCNC(C)Cc1cccc(C(F)(F)F)c1` (racemic) [fenfluramine, (RS)—N-ethyl-1-[3-(trifluoromethyl)phenyl]propan-2-amine], the “inhibition of receptor binding (tracer)” value is on record as “significantly inhibit” in assay [1]; “significantly inhibit” on serotonin 5-HT1A (test article 1×10^−6 and 1×10^−5 mol/L, rat cerebral cortex); “significantly inhibit” in the assay on Sigma non-selective. Further, the IC50 was 573 nM on serotonin 5-HT1A and greater than 30000 nM against hNav1.5. At serotonin 5-HT1A, this molecule showed a Ki of 327 nM. The “dizocilpine-induced deficit of spontaneous alternation” value in the assay with Swiss OF-1 mice [2] (setting [10]) is “significantly attenuated”. Besides, the “interaction with PRE-084 (sigma-1 receptor behaviour in vivo)” value in the assay with Swiss OF-1 mice [2] (fenfluramine at maximal inactive dose (0.1), Y-maze and passive avoidance data) is given as “behaves as a sigma-1 receptor PAM”. Besides, the “dose attenuating dizocilpine-induced deficit in passive avoidance response (minimal active dose)” value in the assay on Swiss OF-1 mice [3] (IP, 0.1 mg/kg not active) was 0.3 mg/kg. Also, the “dizocilpine-induced deficit of passive avoidance learning” value in the assay on Swiss OF-1 mice [3] (setting [10]) is “significantly attenuated”. Besides, the “epileptiform behavior (locomotor activity)” value in [4] was “significantly decreased”. In addition, the “epileptiform brain activity (LFP recordings)” value in assay [5] was “anti-epileptiform activity was consistently confirmed”. Besides, the “antiseizure effect on PTZ-induced seizures” value in assay [6] is listed as “no observable antiseizure effects”. For the same molecule, the seizure severity entry with DBA/1 mice (15 mg/kg, at 16h, p<0.05) is “significantly reduced seizure severity”. For the same molecule, the “time at which seizure susceptibility returned” value with DBA/1 mice (40 mg/kg) was found to be 48 h. Further, the seizures entry with DBA/1 mice (40 mg/kg, at 30 min, p<0.001) is recorded as “completely blocked seizures”. For the same molecule, in the assay on DBA/1 mice (Mus musculus, ip, 0.5 h, i.p., at 30 min, read-out: ED50, blockade of susceptibility to audiogenic seizures (AGSz)), the ED50 was found to be 31 mg/kg. Further, the “ED50, blockade of susceptibility to audiogenic seizures (AGSz)” value with DBA/1 mice (i.p., at 30 min, listed as FFA) is 21.4 mg/kg. Moreover, the “antagonist activity at the beta-2 adrenergic receptor” value in assay [7] is recorded as “some antagonist activity”. For the same molecule, the “effect on twitch contraction amplitude” value on Sigma 1 [8] is recorded as “did not significantly affect”. Moreover, the “behaviour at the sigma receptor (mode of action)” value at Sigma 1 [9] (conclusion from guinea pig vas deferens tissue bioassay) is “positive allosteric modulators”. For the same molecule, the “effect on the (+)SKF-10,047-induced increase in twitch contraction amplitude” value on Sigma 1 [9] (field-stimulated guinea pig vas deferens, (+)SKF-10047 100 μM) is “slightly increased”.
